Data from PubChem BioAssay AID2060494 (Molecular Pharmacology Branch, DTP, NCI, 2025).
pIC50: −log10 of the molar value.

Tested on: 435261-313-R-J1-PDC complex spheroid viability
Experiment: Anticancer human tumor 435261-313-R-J1-PDC patient-derived colon adenocarcinoma cell line growth inhibition [GQUAD]
Settings: for pIC50: curve of first compound; for viability, T/C: stronger effect = lower value
Procedure, shortened: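 Multi-cell-type spheroids of tumor cells with HUVEC and mesenchymal stem cells, treated with drug combinations. Concentrations descend in half-log steps from near clinical Cmax, or from 10 microM where Cmax is unknown; viability read-out.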

[1] = second compound 0.0316 µM, first compound 0.0316 µM
[2] = second compound 0.0316 µM, first compound 0.316 µM
[3] = second compound 0.1 µM, first compound 0.0316 µM
[4] = second compound 0.1 µM, first compound 0.316 µM
[5] = second compound 0.316 µM, first compound 0.0316 µM
[6] = second compound 0.316 µM, first compound 0.316 µM
[7] = second compound 1 µM, first compound 0.0316 µM
[8] = second compound 1 µM, first compound 0.316 µM
[9] = second compound 3.16 µM, first compound 0.0316 µM
[10] = second compound 3.16 µM, first compound 0.316 µM
[11] = second compound 10 µM, first compound 0.0316 µM
[12] = second compound 10 µM, first compound 0.316 µM
[13] = second compound 0.0316 µM, first compound 0.000999 µM
[14] = second compound 0.0316 µM, first compound 0.00316 µM
[15] = second compound 0.0316 µM, first compound 0.00999 µM
[16] = second compound 0.0316 µM, first compound 0.0999 µM
[17] = second compound 0.1 µM, first compound 0.000999 µM
[18] = second compound 0.1 µM, first compound 0.00316 µM
[19] = second compound 0.1 µM, first compound 0.00999 µM
[20] = second compound 0.1 µM, first compound 0.0999 µM
[21] = second compound 0.316 µM, first compound 0.000999 µM
[22] = second compound 0.316 µM, first compound 0.00316 µM
[23] = second compound 0.316 µM, first compound 0.00999 µM
[24] = second compound 0.316 µM, first compound 0.0999 µM
[25] = second compound 1 µM, first compound 0.000999 µM
[26] = second compound 1 µM, first compound 0.00316 µM
[27] = second compound 1 µM, first compound 0.00999 µM
[28] = second compound 1 µM, first compound 0.0999 µM
[29] = second compound 3.16 µM, first compound 0.000999 µM
[30] = second compound 3.16 µM, first compound 0.00316 µM
[31] = second compound 3.16 µM, first compound 0.00999 µM
[32] = second compound 3.16 µM, first compound 0.0999 µM
[33] = second compound 10 µM, first compound 0.000999 µM
[34] = second compound 10 µM, first compound 0.00316 µM
[35] = second compound 10 µM, first compound 0.00999 µM
[36] = second compound 10 µM, first compound 0.0999 µM
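Further: spheroids exposed to the agents for seven days before readout.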
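Wherever viability, T/C is given: percent of vehicle control viability with DMSO wells as 100%.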

**Q.** What does the source list for `C=CC(=O)N1CCN(c2nc(=O)n(-c3c(C)ccnc3C(C)C)c3nc(-c4c(O)cccc4F)c(F)cc23)C(C)C1` (stereo unspecified) + Cc1[nH]c2ccc(F)cc2c1-c1nc2c3cccnc3c3ncccc3c2[nH]1?
**A.** pIC50 (second compound 0.0316 µM): < 5.00; pIC50 (second compound 0.1 µM): < 5.00; pIC50 (second compound 0.316 µM): < 5.00; pIC50 (second compound 1 µM): < 5.00; pIC50 (second compound 3.16 µM): > 7.50; pIC50 (second compound 10 µM): > 7.50; viability, T/C [1]: 98.7%; viability, T/C (second compound 0.0316 µM, first compound 0.1 µM): 69.3%; viability, T/C [2]: 116%; viability, T/C (second compound 0.0316 µM, first compound 1 µM): 126%; viability, T/C (second compound 0.0316 µM, first compound 3.16 µM): 127%; viability, T/C (second compound 0.0316 µM, first compound 10 µM): 83.8%; viability, T/C [3]: 85%; viability, T/C (second compound 0.1 µM, first compound 0.1 µM): 131%; viability, T/C [4]: 92.8%; viability, T/C (second compound 0.1 µM, first compound 1 µM): 109%; viability, T/C (second compound 0.1 µM, first compound 3.16 µM): 129%; viability, T/C (second compound 0.1 µM, first compound 10 µM): 97.8%; viability, T/C [5]: 97.6%; viability, T/C (second compound 0.316 µM, first compound 0.1 µM): 106%; viability, T/C [6]: 88.7%; viability, T/C (second compound 0.316 µM, first compound 1 µM): 73.9%; viability, T/C (second compound 0.316 µM, first compound 3.16 µM): 122%; viability, T/C (second compound 0.316 µM, first compound 10 µM): 104%; viability, T/C [7]: 78.4%; viability, T/C (second compound 1 µM, first compound 0.1 µM): 84%; viability, T/C [8]: 74.2%; viability, T/C (second compound 1 µM, first compound 1 µM): 71.2%; viability, T/C (second compound 1 µM, first compound 3.16 µM): 61%; viability, T/C (second compound 1 µM, first compound 10 µM): 80.4%; viability, T/C [9]: 41.5%; viability, T/C (second compound 3.16 µM, first compound 0.1 µM): 27.6%; viability, T/C [10]: 28.1%; viability, T/C (second compound 3.16 µM, first compound 1 µM): 42.5%; viability, T/C (second compound 3.16 µM, first compound 3.16 µM): 54.2%; viability, T/C (second compound 3.16 µM, first compound 10 µM): 32%; viability, T/C [11]: 22.4%; viability, T/C (second compound 10 µM, first compound 0.1 µM): 24.8%; viability, T/C [12]: 24.8%; viability, T/C (second compound 10 µM, first compound 1 µM): 16.2%; viability, T/C (second compound 10 µM, first compound 3.16 µM): 28.3%; viability, T/C (second compound 10 µM, first compound 10 µM): 22.4%

**Q.** `CC[C@@]1(O)C(=O)OCc2c1cc1n(c2=O)Cc2cc3c(CN(C)C)c(O)ccc3nc2-1` + Cc1[nH]c2ccc(F)cc2c1-c1nc2c3cccnc3c3ncccc3c2[nH]1 was tested. Which pIC50 (second compound 0.0316 µM) did it give?
**A.** < 6.50

**Q.** And the pIC50 (second compound 0.1 µM)?
**A.** < 6.50

**Q.** What about the pIC50 (second compound 0.316 µM) of the same molecule?
**A.** < 6.50

**Q.** And the pIC50 (second compound 1 µM)?
**A.** < 6.50

**Q.** And the pIC50 (second compound 3.16 µM)?
**A.** > 9.00

**Q.** What about the pIC50 (second compound 10 µM) of the same molecule?
**A.** > 9.00

**Q.** What about the viability, T/C [13] of the same molecule?
**A.** 90.1%

**Q.** What about the viability, T/C [14] of the same molecule?
**A.** 76.8%

**Q.** And the viability, T/C [15]?
**A.** 84.8%

**Q.** What about the viability, T/C [1] of the same molecule?
**A.** 74.6%

**Q.** What about the viability, T/C [16] of the same molecule?
**A.** 72.9%

**Q.** And the viability, T/C [2]?
**A.** 69%

**Q.** And the viability, T/C [17]?
**A.** 106%

**Q.** And the viability, T/C [18]?
**A.** 74.9%

**Q.** What about the viability, T/C [19] of the same molecule?
**A.** 108%

**Q.** What about the viability, T/C [3] of the same molecule?
**A.** 73.6%

**Q.** What about the viability, T/C [20] of the same molecule?
**A.** 72.8%

**Q.** And the viability, T/C [4]?
**A.** 59.8%

**Q.** And the viability, T/C [21]?
**A.** 89.3%

**Q.** What about the viability, T/C [22] of the same molecule?
**A.** 80%

**Q.** And the viability, T/C [23]?
**A.** 114%

**Q.** What about the viability, T/C [5] of the same molecule?
**A.** 59.3%

**Q.** What about the viability, T/C [24] of the same molecule?
**A.** 58.7%

**Q.** What about the viability, T/C [6] of the same molecule?
**A.** 52.6%

**Q.** And the viability, T/C [25]?
**A.** 41.9%

**Q.** And the viability, T/C [26]?
**A.** 67.6%

**Q.** And the viability, T/C [27]?
**A.** 67.9%

**Q.** And the viability, T/C [7]?
**A.** 64.5%

**Q.** What about the viability, T/C [28] of the same molecule?
**A.** 54.2%

**Q.** And the viability, T/C [8]?
**A.** 47.1%

**Q.** What about the viability, T/C [29] of the same molecule?
**A.** 41.4%

**Q.** What about the viability, T/C [30] of the same molecule?
**A.** 34.2%

**Q.** What about the viability, T/C [31] of the same molecule?
**A.** 37.4%

**Q.** What about the viability, T/C [9] of the same molecule?
**A.** 28.2%

**Q.** And the viability, T/C [32]?
**A.** 23.9%

**Q.** What about the viability, T/C [10] of the same molecule?
**A.** 33.8%

**Q.** And the viability, T/C [33]?
**A.** 19.3%

**Q.** What about the viability, T/C [34] of the same molecule?
**A.** 25.4%

**Q.** What about the viability, T/C [35] of the same molecule?
**A.** 18.3%

**Q.** What about the viability, T/C [11] of the same molecule?
**A.** 24.9%

**Q.** What about the viability, T/C [36] of the same molecule?
**A.** 20.7%

**Q.** What about the viability, T/C [12] of the same molecule?
**A.** 17.9%

**Q.** How did the pIC50 (second compound 0.0316 µM) turn out when `CCc1c2c(nc3ccc(O)cc13)-c1cc3c(c(=O)n1C2)COC(=O)[C@]3(O)CC` + Cc1[nH]c2ccc(F)cc2c1-c1nc2c3cccnc3c3ncccc3c2[nH]1 was run?
**A.** 7.67

**Q.** What about the pIC50 (second compound 0.1 µM) of the same molecule?
**A.** 7.63

**Q.** What about the pIC50 (second compound 0.316 µM) of the same molecule?
**A.** 7.62

**Q.** And the pIC50 (second compound 1 µM)?
**A.** > 9.00

**Q.** What about the pIC50 (second compound 3.16 µM) of the same molecule?
**A.** > 9.00

**Q.** What about the pIC50 (second compound 10 µM) of the same molecule?
**A.** > 9.00

**Q.** What about the viability, T/C [13] of the same molecule?
**A.** 119%

**Q.** And the viability, T/C [14]?
**A.** 62.1%

**Q.** What about the viability, T/C [15] of the same molecule?
**A.** 67%

**Q.** What about the viability, T/C [1] of the same molecule?
**A.** 46.7%

**Q.** What about the viability, T/C [16] of the same molecule?
**A.** 51.3%

**Q.** And the viability, T/C [2]?
**A.** 33.8%

**Q.** What about the viability, T/C [17] of the same molecule?
**A.** 93.9%

**Q.** What about the viability, T/C [18] of the same molecule?
**A.** 64.4%

**Q.** And the viability, T/C [19]?
**A.** 58.5%

**Q.** And the viability, T/C [3]?
**A.** 49.4%

**Q.** And the viability, T/C [20]?
**A.** 46.5%

**Q.** And the viability, T/C [4]?
**A.** 33.9%

**Q.** And the viability, T/C [21]?
**A.** 53.6%

**Q.** And the viability, T/C [22]?
**A.** 51.5%

**Q.** And the viability, T/C [23]?
**A.** 53.2%

**Q.** And the viability, T/C [5]?
**A.** 49.1%

**Q.** And the viability, T/C [24]?
**A.** 31.8%

**Q.** What about the viability, T/C [6] of the same molecule?
**A.** 29.7%

**Q.** And the viability, T/C [25]?
**A.** 45.6%

**Q.** What about the viability, T/C [26] of the same molecule?
**A.** 55.6%

**Q.** What about the viability, T/C [27] of the same molecule?
**A.** 32.9%

**Q.** What about the viability, T/C [7] of the same molecule?
**A.** 34%

**Q.** And the viability, T/C [28]?
**A.** 33.1%

**Q.** What about the viability, T/C [8] of the same molecule?
**A.** 23.8%

**Q.** And the viability, T/C [29]?
**A.** 32.8%

**Q.** And the viability, T/C [30]?
**A.** 30.6%

**Q.** What about the viability, T/C [31] of the same molecule?
**A.** 35.4%

**Q.** And the viability, T/C [9]?
**A.** 24%

**Q.** What about the viability, T/C [32] of the same molecule?
**A.** 20.1%

**Q.** And the viability, T/C [10]?
**A.** 21.2%

**Q.** And the viability, T/C [33]?
**A.** 22.2%

**Q.** What about the viability, T/C [34] of the same molecule?
**A.** 18.8%

**Q.** What about the viability, T/C [35] of the same molecule?
**A.** 25.3%

**Q.** What about the viability, T/C [11] of the same molecule?
**A.** 16.7%

**Q.** And the viability, T/C [36]?
**A.** 16.1%

**Q.** What about the viability, T/C [12] of the same molecule?
**A.** 17.3%
